ChEMBL document CHEMBL4190279 (Eur J Med Chem, 2017)
Calls of active or inactive are those of the source. The calls are words filed in the database; no cut-off is given here.

Tests used:
[1] = Selectivity index, ratio of Ki for equine serum BuChE assessed as enzyme-substrate-inhibitor complex to Ki for electric eel AChE assessed as enzyme-substrate-inhibitor complex
Acetylcholinesterase [2] = target: T1, Acetylcholinesterase (Electrophorus electricus, UniProt O42275); experiment: Non-competitive inhibition of electric eel AChE assessed as enzyme-substrate-inhibitor complex using p-nitrophenyl acetate as substrate by Lineweaver-Burk plot analysis
T1 sequence (O42275 whole entry): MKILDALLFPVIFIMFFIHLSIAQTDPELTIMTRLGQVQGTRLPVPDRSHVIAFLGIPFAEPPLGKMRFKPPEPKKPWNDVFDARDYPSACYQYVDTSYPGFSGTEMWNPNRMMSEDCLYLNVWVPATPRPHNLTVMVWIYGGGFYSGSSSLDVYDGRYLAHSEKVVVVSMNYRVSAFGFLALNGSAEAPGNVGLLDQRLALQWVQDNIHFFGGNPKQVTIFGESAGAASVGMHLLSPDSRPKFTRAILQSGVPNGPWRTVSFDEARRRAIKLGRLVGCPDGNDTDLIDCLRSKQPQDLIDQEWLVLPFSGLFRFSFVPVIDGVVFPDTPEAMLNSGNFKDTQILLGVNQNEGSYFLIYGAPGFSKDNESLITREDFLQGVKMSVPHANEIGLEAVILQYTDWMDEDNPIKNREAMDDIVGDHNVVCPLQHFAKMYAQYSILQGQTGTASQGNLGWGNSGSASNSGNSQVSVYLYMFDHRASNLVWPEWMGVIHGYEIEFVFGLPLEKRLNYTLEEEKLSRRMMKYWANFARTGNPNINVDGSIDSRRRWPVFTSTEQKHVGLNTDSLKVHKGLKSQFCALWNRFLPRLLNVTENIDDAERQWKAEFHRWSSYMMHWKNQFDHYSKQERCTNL

Cholinesterase [3] = target: T2, Cholinesterase (Equus caballus, UniProt P81908); experiment: Mixed-type inhibition of equine serum BuChE assessed as enzyme-inhibitor complex using p-nitrophenyl butyrate as substrate by Lineweaver-Burk plot analysis
T2 sequence (P81908 whole entry): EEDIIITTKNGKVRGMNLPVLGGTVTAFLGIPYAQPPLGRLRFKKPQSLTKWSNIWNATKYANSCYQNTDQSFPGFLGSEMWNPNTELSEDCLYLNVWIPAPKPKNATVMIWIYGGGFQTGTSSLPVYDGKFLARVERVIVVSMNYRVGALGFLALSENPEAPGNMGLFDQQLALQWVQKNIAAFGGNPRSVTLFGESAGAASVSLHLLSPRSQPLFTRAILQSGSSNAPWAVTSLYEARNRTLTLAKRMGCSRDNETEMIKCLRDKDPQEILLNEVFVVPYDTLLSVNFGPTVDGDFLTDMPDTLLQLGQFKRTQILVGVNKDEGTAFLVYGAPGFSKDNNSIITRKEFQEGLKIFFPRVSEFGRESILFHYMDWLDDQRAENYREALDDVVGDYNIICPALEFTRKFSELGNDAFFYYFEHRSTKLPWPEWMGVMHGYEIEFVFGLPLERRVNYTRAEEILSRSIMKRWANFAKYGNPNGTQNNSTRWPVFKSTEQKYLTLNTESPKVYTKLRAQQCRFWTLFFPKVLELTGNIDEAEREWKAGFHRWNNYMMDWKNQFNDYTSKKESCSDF

WiDr [4] = experiment: cells; conditions: Homo sapiens, 48 h
Description: Antiproliferative activity against human WiDr cells after 48 hrs by SRB assay

T47D [5] = experiment: Potency index, ratio of cisplatin GI50 to compound GI50 for human T47D cells; type: functional
HBL-100 [6] = experiment: Potency index, ratio of 5-FU GI50 to compound GI50 for human HBL100 cells; type: functional
HBL-100 [7] = experiment: Cell cycle arrest in human HBL100 cells assessed as accumulation at subG1-phase at 1 uM after 24 hrs by propidium iodide staining based flow cytometry; type: functional
WiDr [8] = experiment: Cell cycle arrest in human WiDr cells assessed as accumulation at G1-phase at 0.2 uM after 24 hrs by propidium iodide staining based flow cytometry; type: functional
HBL-100 [9] = experiment: cells; conditions: Homo sapiens, HBL-100, 48 h
Description: Antiproliferative activity against human HBL100 cells after 48 hrs by SRB assay

HeLa [10] = experiment: Potency index, ratio of 5-FU GI50 to compound GI50 for human HeLa cells; type: functional
HBL-100 [11] = experiment: Cell cycle arrest in human HBL100 cells assessed as accumulation at G1-phase at 0.2 uM after 24 hrs by propidium iodide staining based flow cytometry; type: functional
in vitro = conditions: human, hTERT-BJ cells
Description: Antiproliferative activity against human hTERT-BJ cells after 48 hrs by SRB assay

SW1573 [12] = experiment: Cell cycle arrest in human SW1573 cells assessed as accumulation at subG1-phase at 1 uM after 24 hrs by propidium iodide staining based flow cytometry; type: functional
T47D [13] = experiment: Cell cycle arrest in human T47D cells assessed as accumulation at subG1-phase at 1 uM after 24 hrs by propidium iodide staining based flow cytometry; type: functional
HeLa [14] = experiment: Cell cycle arrest in human HeLa cells assessed as accumulation at subG1-phase at 1 uM after 24 hrs by propidium iodide staining based flow cytometry; type: functional
T47D [15] = experiment: cells; conditions: Homo sapiens, 48 h
Description: Antiproliferative activity against human T47D cells after 48 hrs by SRB assay

T47D [16] = experiment: Potency index, ratio of 5-FU GI50 to compound GI50 for human T47D cells; type: functional
A549 [17] = experiment: Cell cycle arrest in human A549 cells assessed as accumulation at G1-phase at 0.2 uM after 24 hrs by propidium iodide staining based flow cytometry; type: functional
HeLa [18] = experiment: Cell cycle arrest in human HeLa cells assessed as accumulation at G1-phase at 0.2 uM after 24 hrs by propidium iodide staining based flow cytometry; type: functional
SW1573 [19] = experiment: Potency index, ratio of 5-FU GI50 to compound GI50 for human SW1573 cells; type: functional
HBL-100 [20] = experiment: Potency index, ratio of cisplatin GI50 to compound GI50 for human HBL100 cells; type: functional
Acetylcholinesterase [21] = target: T1, Acetylcholinesterase; experiment: Non-competitive inhibition of electric eel AChE assessed as enzyme-inhibitor complex using p-nitrophenyl acetate as substrate by Lineweaver-Burk plot analysis
[22] = GPx-like activity of the compound assessed as H2O2 reduction by measuring oxidation of PhSH to (PhS)2 at 50 uM measured for 180 secs by spectrophotometric analysis relative to control; type: functional
HeLa [23] = experiment: cells; conditions: Homo sapiens, 48 h
Description: Antiproliferative activity against human HeLa cells after 48 hrs by SRB assay

SW1573 [24] = experiment: Cell cycle arrest in human SW1573 cells assessed as accumulation at G1-phase at 0.2 uM after 24 hrs by propidium iodide staining based flow cytometry; type: functional
SW1573 [25] = experiment: Potency index, ratio of cisplatin GI50 to compound GI50 for human SW1573 cells; type: functional
WiDr [26] = experiment: Cell cycle arrest in human WiDr cells assessed as accumulation at subG1-phase at 1 uM after 24 hrs by propidium iodide staining based flow cytometry; type: functional
Cholinesterase [27] = target: T2, Cholinesterase; experiment: Mixed-type inhibition of equine serum BuChE assessed as enzyme-substrate-inhibitor complex using p-nitrophenyl butyrate as substrate by Lineweaver-Burk plot analysis
WiDr [28] = experiment: Potency index, ratio of cisplatin GI50 to compound GI50 for human WiDr cells; type: functional
T47D [29] = experiment: Cell cycle arrest in human T47D cells assessed as accumulation at G1-phase at 0.2 uM after 24 hrs by propidium iodide staining based flow cytometry; type: functional
WiDr [30] = experiment: Potency index, ratio of 5-FU GI50 to compound GI50 for human WiDr cells; type: functional
A549 [31] = experiment: Potency index, ratio of cisplatin GI50 to compound GI50 for human A549 cells; type: functional
[32] = GPx-like activity of the compound assessed as velocity for H2O2 reduction by measuring oxidation of PhSH to (PhS)2 at 50 uM measured for 180 secs by spectrophotometric analysis; type: functional
HeLa [33] = experiment: Potency index, ratio of cisplatin GI50 to compound GI50 for human HeLa cells; type: functional
[34] = GPx-like activity of the compound assessed as half life for H2O2 reduction by measuring oxidation of PhSH to (PhS)2 at 50 uM measured for 180 secs by spectrophotometric analysis relative to control; type: functional
SW1573 [35] = experiment: cells; conditions: Homo sapiens, SW1573, 48 h
Description: Antiproliferative activity against human SW1573 cells after 48 hrs by SRB assay

A549 [36] = experiment: cells; conditions: Homo sapiens, A549, 48 h
Description: Antiproliferative activity against human A549 cells after 48 hrs by SRB assay

A549 [37] = experiment: Cell cycle arrest in human A549 cells assessed as accumulation at subG1-phase at 1 uM after 24 hrs by propidium iodide staining based flow cytometry; type: functional

Work on `c1ccc2c(NCCCCCC[Se][Se]CCCCCCNc3c4c(nc5ccccc35)CCCC4)c3c(nc2c1)CCCC3` yielded a Ratio Ki [1] of 2.8, a Ki (Acetylcholinesterase [2]) of 26.3 nM and a Ki (Cholinesterase [3]) of 43.3 nM. For the same molecule, the GI50 (WiDr [4]) was 240 nM, the RatioGI50 (T47D [5]) was “<=162” and the RatioGI50 (HBL-100 [6]) was “<=306”. The Activity (HBL-100 [7]) was >50%, the Activity (WiDr [8]) was “Active” and the GI50 (HBL-100 [9]) was 170 nM. The RatioGI50 (HeLa [10]) was “<=306”, the Activity (HBL-100 [11]) was “Active” and the GI50 at 48 h (in vitro) was 240 nM. For the same molecule, the Activity (SW1573 [12]) was “Active”, the Activity (T47D [13]) was >50% and the Activity (HeLa [14]) was “Active”. For the same molecule, the GI50 (T47D [15]) was 210 nM, the RatioGI50 (T47D [16]) was “<=306” and the Activity (A549 [17]) was “Active”. The Activity (HeLa [18]) was “Active”, the RatioGI50 (SW1573 [19]) was “<=306” and the RatioGI50 (HBL-100 [20]) was “<=162”. For the same molecule, the Ki (Acetylcholinesterase [21]) was 26.3 nM, the fold change (FC) [22] was 4.7 and the GI50 (HeLa [23]) was 160 nM. For the same molecule, the Activity (SW1573 [24]) was “Active”, the RatioGI50 (SW1573 [25]) was “<=162” and the Activity (WiDr [26]) was “Active”. The Ki (Cholinesterase [27]) was 73.3 nM, the RatioGI50 (WiDr [28]) was “<=162” and the Activity (T47D [29]) was “Active”. For the same molecule, the RatioGI50 (WiDr [30]) was “<=306”, the RatioGI50 (A549 [31]) was “<=162” and the Activity [32] was 36.5 µM/min. The RatioGI50 (HeLa [33]) was “<=162”, the T1/2 [34] was 1.14 h and the GI50 (SW1573 [35]) was 130 nM. The GI50 (A549 [36]) was 140 nM and the Activity (A549 [37]) was “Active”.
